# “Also recorded” adds a separate entry of the source. Read-outs that look alike come from different tables or passages of the source.
# B1: cystatin C (protein, UniProt P01034 27-146, looked up)
# Cystatin-C: SSPGKPPRLVGGPMDASVEEEGVRRALDFAVGEYNKASNDMYHSRALQVVRARKQIVAGVNYFLDVELGRTTCTKTQPNLDNCPFHDQPHLKRKAFCSFQIYAVPWQGTMTLSKSTCQDA
# B2: α1-anti-chymotrypsin (protein, UniProt P01011 24-423, looked up)
# Alpha-1-antichymotrypsin: HPNSPLDEENLTQENQDRGTHVDLGLASANVDFAFSLYKQLVLKAPDKNVIFSPLSISTALAFLSLGAHNTTLTEILKGLKFNLTETSEAEIHQSFQHLLRTLNQSSDELQLSMGNAMFVKEQLSLLDRFTEDAKRLYGSEAFATDFQDSAAAKKLINDYVKNGTRGKITDLIKDLDSQTMMVLVNYIFFKAKWEMPFDPQDTHQSRFYLSKKKWVMVPMMSLHHLTIPYFRDEELSCTVVELKYTGNASALFILPDQDKMEEVEAMLLPETLKRWRDSLEFREIGELYLPKFSISRDYNLNDILLQLGIEEAFTSKADLSGITGARNLAVSQVVHKAVLDVFEEGTEASAATAVKITLLSALVETRTIVRFNRPFLMIIVPTDTQNIFFMSKVTNPKQA
# What was measured:
# [1] = Flow cytometric calcium permeabilization of phosphatidylserine liposomes (Fluo-3/DiD); assay type: biochemical; conditions: for permeabilization of negatively charged (phosphatidylserine) liposomes to calcium: 400 nm liposomes, Fluo-3, flow cytometer
# Description: (§1) The figure is a composite of data which was presented and analyzed in detail in (Zaretsky and Zaretskaia 2020, Zaretsky and Zaretskaia 2020). Liposomes (400 nm) were made of either phosphatidylserine (A-E, negatively charged lipid) or phosphatidylcholine (F-H, neutral lipid) with added DiD and were extruded in the Ca-free buffer containing 1 mM Fluo-3. After the addition of calcium, aliquots of peptide were added. Ionomycin was used as a positive control. Fluorescence of liposomes was analyzed using a flow cytometer. Each dot at the graph represent a single liposome registered in the flow. The intensity of DiD fluorescence characterizes the amount of membrane material in the liposome, while the fluorescence of Fluo-3 depends on the intraliposomal presence of calcium. […] The liposomes inside rectangle (area R1) are permeabilized, and the number of liposomes which were counted to be within the area is shown.
# Liposomes with embedded ion-sensitive probe are used as a test system. Liposomes are extruded from phosphatidylserine containing membrane probe (i.e. DiD) in a calcium-free buffer containing ion-sensitive probe (i.e. Fluo-4) and volume probe (i.e. dextran-tetramethylrhodamin) or membrane probe (DiD). Extravesicular probes are cleared using either centrifugation, or dialysis. After the addition of calcium, the intravesicular calcium-sensing probe remain non-fluorescent because membranes are not permeable to calcium. If membrane channels are formed, calcium enters permeable liposomes, saturates the calcium-sensing dye, so the liposome becomes fluorescent. The number of fluorescent liposomes is an estimate of the number of channel-forming units in the solution.
# amyloid channels = amyloid channels (Homo sapiens, UniProt P05067); conditions: cited from earlier work
# [2] = Flow cytometric calcium permeabilization of phosphatidylcholine liposomes (Fluo-3/DiD); assay type: biochemical; conditions: 400 nm liposomes, Fluo-3, flow cytometer
# Description: as §1
# [3] = test system: Aβ-induced apoptosis in the brain; conditions: cited from earlier work; for Aβ-induced apoptosis (TUNEL marker in the brain) / accumulation of Aβ immunoreactivity / amyloid: chronic Aβ infusion with simultaneous i.c.v. infusion of inhibitor
# [4] = cited from earlier work
# [5] = test system: Aβ1-42-induced drop of cell survival; conditions: Tizon 2010; cited from earlier work
# Aβ1-42 toxicity = conditions: Aβ1-42, Aksenov 1996; cited from earlier work
# [6] = test system: rat primary cortical cultures; conditions: MTT, different concentrations of Aβ; cited from earlier work
# [7] = test system: 15 cells derived from pancreatic islets of Langerhans; conditions: cited from earlier work; for beta-amyloid-induced drop in cell viability: two cell lines, not specified
# [8] = test system: 15 cells derived from pancreatic islets of Langerhans; conditions: cited from earlier work; for amylin-induced drop in cell viability / cellular toxicity: pancreatic islet cell line
# [9] = MTT, listed as al-anti-chymotrypsin
# Chain of amyloid channels (P05067 672-711): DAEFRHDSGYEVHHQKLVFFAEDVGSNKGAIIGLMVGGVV
molecule,measurement,setting,value
Aβ1-42: full-length amyloid peptide,permeabilization of negatively charged (phosphatidylserine) liposomes to calcium,[1],ineffective; also recorded: does not permeabilize liposomal membranes
NC(CO)(CO)CO [tromethamine],blockade of smaller amyloid channels (<400 pS),amyloid channels,effectively blocked
same,blockade of super-high conductance giant channels (>1 nS),amyloid channels,less effective
C[C@H](CCC(=O)O)C[C@H](C)C[C@H](C)C(=O)/C=C(\O)[C@H](C)C[C@H](C)C/C=C/[C@@H](C)[C@@H](O)[C@@H](C)[C@@H](O)C[C@@H]1CC[C@@](C)([C@H]2CC[C@@](C)([C@@H](C)O)O2)O1 [ionomycin],permeabilization of negatively charged (phosphatidylserine) liposomes to calcium,[1],permeabilizes liposomes
same,permeabilization of neutral (phosphatidylcholine) liposomes to calcium,[2],permeabilizes thousands of liposomes
aprotinin,"apoptosis by the inhibitor itself (spontaneously occurring, TUNEL)","[3]; rat, in vivo",tends to decrease even spontaneously occurring apoptosis
same,Aβ-induced apoptosis (TUNEL marker in the brain),[3]; rats,prevented Aβ-induced apoptosis
same,accumulation of Aβ immunoreactivity / amyloid,[3]; rats,did not exacerbate intracellular accumulation of amyloid
"Aβ22-35: longer beta-amyloid fragment without positive charge, non-channel-forming (EDVGSNKGAIIGLM; Amyloid-beta protein 42; UniProt P05067 693-706, looked up, fragment)",permeabilization of negatively charged (phosphatidylserine) liposomes to calcium,[1],does not create a noticeable number of channels; also recorded: does not permeabilize liposomes
"Aβ25-35: positively charged short beta-amyloid fragment, channel-forming (GSNKGAIIGLM; Amyloid-beta protein 42; UniProt P05067 696-706, looked up, fragment)",permeabilization of negatively charged (phosphatidylserine) liposomes to calcium,[1],Membrane permeabilization occurs; also recorded: creates multiple liposomes permeable to calcium
same,molecules of peptide out of which one channel is formed,[1]; model conditions,approximately 10^12 molecules
same,permeabilization of neutral (phosphatidylcholine) liposomes to calcium,[2],does not permeabilize liposomes; also recorded: not permeabilized
same,share of channels with high conductance,"[4]; acidic pH (pH 5.0), 20 μM peptide",more than 30%
same,conductance of channels formed (upper value),[4]; planar lipid bilayers,up to 1 nS
CC(=O)N[C@@H](CC(C)C)C(=O)N[C@@H](CC(C)C)C(=O)N[C@H](C=O)CCCNC(=N)N [leupeptin],Aβ-induced apoptosis (TUNEL marker in the brain),[3]; rats,promoted apoptosis
same,accumulation of Aβ immunoreactivity / amyloid,[3]; rats,accumulation of extracellular and intracellular Aβ immunoreactivity
same,"apoptosis by the inhibitor itself (spontaneously occurring, TUNEL)","[3]; rats, inhibitor without Aβ",tends to increase apoptosis
B1,drop of cell survival induced by Aβ1-42,[5],prevented the drop of cell survival induced by Aβ1-42
B2,effect on fibril formation,Aβ1-42 toxicity,without affecting fibril formation
same,optimal dose for inhibition of amyloid toxicity,[6],10^−8 M
same,optimal dose for inhibition of amyloid toxicity,"[7]; 15 cells (IS cells), MTT, different concentrations of Aβ",10^−7 M
same,beta-amyloid-induced drop in cell viability,[7]; MTT,can protect against Aβ-induced drop in cell viability
same,beta-amyloid-induced drop in cell viability,[7]; [9],prevented
same,effect of further increase of ACT concentration on protection against beta-amyloid,"[7]; above optimal dose, bell-shaped dose-dependence",disappearance of protection; also recorded: bell-shaped dose-dependence of protection
same,protection against beta-amyloid-induced drop in cell viability,"[7]; in some conditions, cell line not specified (15 cells or rat primary cortical cultures), MTT",100%
same,amylin-induced drop in cell viability / cellular toxicity,[8]; MTT,prevent amylin-induced cellular toxicity
same,amylin-induced drop in cell viability / cellular toxicity,[8]; [9],prevented
same,protection against amylin,[8]; MTT,< 100%
same,effect of further increase of ACT concentration on protection against amylin,[8]; above optimal dose,significantly decreased the protective effect

# — patent US20220249606A1, “Method of treatment of degenerative diseases caused by membrane channel-forming peptides fragments” (Zarbio, priority 2021, published 2022)
